Patent US20080194585A1, “Fungicidal Pyrazine Derivatives” (priority 2005, published 2008)
Marks after values point to notes of the source that are not given here.

Legend:
Septoria nodorum = assay: Test H: wheat glum blotch, preventive spray on wheat seedlings
Description: (the causal agent of wheat glum blotch) and incubated in a saturated atmosphere at 20° C. for 48 h, and then moved to a growth chamber at 22° C. for 5 days, after which disease ratings were made.

[1] = tested on: Colletotrichum orbiculare; assay: Test B: cucumber Colletotrichum anthracnose, preventive spray on cucumber seedlings
Botrytis cinerea = assay: Test E: tomato botrytis, preventive spray on tomato seedlings
fusarium graminearium = assay: Test I: wheat head scab, preventive spray on wheat seedlings
Description: (the causal agent of wheat head scab) and incubated in a saturated atmosphere at 20° C. for 72 h, and then moved to a growth chamber at 22° C. for 5 days, after which disease ratings were made.

Septoria tritici = assay: Test J: wheat leaf blotch, preventive spray on wheat seedlings; format: in vivo
From the text: A dash (-) indicates no test results.

Pythium aphanidermatum = assay: Test A: bluegrass pythium blight, preventive spray on bluegrass seedlings
[2] = tested on: Erysiphe graminis f. sp. tritici; assay: Test L: wheat powdery mildew, preventive spray on wheat seedlings
Plasmopara viticola = assay: Test D: grape downy mildew, spray after inoculation of grape seedlings; format: in vivo
From the text: Upon removal, disease ratings were made. […] A dash (-) indicates no test results.

Phytophthora infestans = assay: whole plant or invertebrate; format: in vivo
Rhizoctonia oryzae = assay: Test G: turf brown patch, preventive spray on creeping bent grass seedlings
Description: (the causal agent of turf brown patch) and incubated in a saturated atmosphere at 27° C. for 24 h, and then moved to a growth chamber at 27° C. for 5 days, after which disease ratings were made.

Sclerotinia sclerotiorum = assay: Test C: cucumber white mold, preventive spray on cucumber seedlings
[3] = tested on: Puccinia recondita f. sp. tritici; assay: Test K: wheat leaf rust, preventive spray on wheat seedlings
[4] = 200 ppm, 100 = 100% disease control, 0 = no control
[5] = 40 ppm (marked *), 100 = 100% disease control, 0 = no control

Row | SMILES | Test H disease control rating (Septoria nodorum; 40 ppm (*)) | Test B disease control rating ([1]; 40 ppm (*)) | Test E disease control rating (Botrytis cinerea; 40 ppm (*)) | Test I disease control rating (fusarium graminearium; 40 ppm (*)) | Test J disease control rating (Septoria tritici; 40 ppm (*)) | Test A disease control rating (Pythium aphanidermatum; 40 ppm (*)) | Test L disease control rating ([2]; 40 ppm (*)) | Test D disease control rating (Plasmopara viticola; 40 ppm (*)) | Test F disease control rating (Phytophthora infestans; 40 ppm (*)) | Test G disease control rating (Rhizoctonia oryzae; 40 ppm (*)) | Test C disease control rating (Sclerotinia sclerotiorum; 40 ppm (*)) | Test K disease control rating ([3]; 40 ppm (*)) | Test H disease control rating (Septoria nodorum; [5]) | Test B disease control rating [1, 5] | Test E disease control rating (Botrytis cinerea; [5]) | Test I disease control rating (fusarium graminearium; [5]) | Test J disease control rating (Septoria tritici; [5]) | Test A disease control rating (Pythium aphanidermatum; [5]) | Test L disease control rating [2, 5] | Test D disease control rating (Plasmopara viticola; [5]) | other results
1 | CC(C)Cn1c(-c2cccnc2)c(Cl)nc(-n2cncn2)c1=O [compound 235] | 0* % | 0* % | 0* % | 0* % | 0* % | 45* % | 0* % | 0* % | 0* % | 0* % | 0* % | 0* % |  |  |  |  |  |  |  |  | 
2 | CC(C)Cn1c(-c2cccnc2Cl)c(Cl)nc(-n2cncn2)c1=O [compound 236] | 0* % | 0* % | 0* % | 0* % | 0* % | 0* % | 0* % | 0* % | 0* % | 0* % | 0* % | 0* % |  |  |  |  |  |  |  |  | 
3 | CC(C)Cn1c(-c2cccnc2)c(Cl)nc(-n2cccn2)c1=O [compound 237] | 0* % | 0* % | 0* % | 0* % | 24* % | 0* % | 0* % | 0* % | 0* % | 0* % | 0* % | 0* % |  |  |  |  |  |  |  |  | 
4 | CC(CF)n1c(-c2c(F)cccc2F)c(Cl)nc(-n2cccn2)c1=O (stereo not drawn) [compound 238] | 98* % | 63* % | 99* % | 0* % | 96* % | 0* % | 74* % | 0* % | 0* % | 93* % | 0* % | 100* % |  |  |  |  |  |  |  |  | 
5 | Cc1ccn(-c2nc(Br)c(-c3c(F)cccc3F)n(CC(C)C)c2=O)n1 [compound 242] | 94* % | 73* % | 100* % | 0* % | 100* % | 0* % | 99* % | 0* % | 0* % | 82* % | 0* % | 92* % |  |  |  |  |  |  |  |  | 
6 | Cc1ccn(-c2nc(Cl)c(-c3cccc4c3OCO4)n(CC(C)C)c2=O)n1 [compound 255] |  |  |  |  |  |  |  |  |  |  |  |  |  |  |  |  |  |  |  |  | Test H disease control rating (Septoria nodorum; [4]): 0%; Test B disease control rating [1, 4]: 0%; Test E disease control rating (Botrytis cinerea; [4]): 99%; Test I disease control rating (fusarium graminearium; [4]): 0%; Test J disease control rating (Septoria tritici; [4]): 71%; Test A disease control rating (Pythium aphanidermatum; [4]): 0%; Test L disease control rating [2, 4]: 0%; Test D disease control rating (Plasmopara viticola; [4]): 0%; Test F disease control rating (Phytophthora infestans; [4]): 0%; Test G disease control rating (Rhizoctonia oryzae; [4]): 0%; Test C disease control rating (Sclerotinia sclerotiorum; [4]): 0%; Test K disease control rating [3, 4]: 61%
7 | Cc1ccn(-c2nc(Cl)c(-c3ccc4c(c3)OC(F)(F)O4)n(CC(C)C)c2=O)n1 [compound 256] |  |  |  |  |  |  |  |  |  |  |  |  |  |  |  |  |  |  |  |  | Test H disease control rating (Septoria nodorum; [4]): 0%; Test B disease control rating [1, 4]: 0%; Test E disease control rating (Botrytis cinerea; [4]): 0%; Test I disease control rating (fusarium graminearium; [4]): 0%; Test J disease control rating (Septoria tritici; [4]): 38%; Test A disease control rating (Pythium aphanidermatum; [4]): 0%; Test L disease control rating [2, 4]: 0%; Test D disease control rating (Plasmopara viticola; [4]): 0%; Test F disease control rating (Phytophthora infestans; [4]): 0%; Test G disease control rating (Rhizoctonia oryzae; [4]): 0%; Test C disease control rating (Sclerotinia sclerotiorum; [4]): 0%; Test K disease control rating [3, 4]: 0%
8 | Cc1ccn(-c2nc(Cl)c(-c3cc4c(cc3Cl)OCO4)n(CC(C)C)c2=O)n1 [compound 257] |  |  |  |  |  |  |  |  |  |  |  |  |  |  |  |  |  |  |  |  | Test H disease control rating (Septoria nodorum; [4]): 0%; Test B disease control rating [1, 4]: 0%; Test E disease control rating (Botrytis cinerea; [4]): 99%; Test I disease control rating (fusarium graminearium; [4]): 0%; Test J disease control rating (Septoria tritici; [4]): 71%; Test A disease control rating (Pythium aphanidermatum; [4]): 81%; Test L disease control rating [2, 4]: 0%; Test D disease control rating (Plasmopara viticola; [4]): 0%; Test F disease control rating (Phytophthora infestans; [4]): 0%; Test G disease control rating (Rhizoctonia oryzae; [4]): 0%; Test C disease control rating (Sclerotinia sclerotiorum; [4]): 0%; Test K disease control rating [3, 4]: 74%
9 | Cc1cc(C)c(-c2c(Cl)nc(-n3ccc(C)n3)c(=O)n2CC(C)C)c(C)c1 [compound 258] |  |  |  |  |  |  |  |  |  |  |  |  | 0* % | 0* % | 59* % | 0* % | 82* % | 0* % | 0* % | 0* % | Test F disease control rating (Phytophthora infestans; [5]): 0* %; Test G disease control rating (Rhizoctonia oryzae; [5]): 0* %; Test C disease control rating (Sclerotinia sclerotiorum; [5]): 49* %; Test K disease control rating [3, 5]: 41* %
10 | CCCCn1c(-c2ccc(F)cc2Cl)c(Cl)nc(-n2ccc(C)n2)c1=O [compound 265] |  |  |  |  |  |  |  |  |  |  |  |  | 95* % | 90* % | 100* % | 0* % | 100* % | 0* % | 91* % | 0* % | Test F disease control rating (Phytophthora infestans; [5]): 0* %; Test G disease control rating (Rhizoctonia oryzae; [5]): 50* %; Test C disease control rating (Sclerotinia sclerotiorum; [5]): 0* %; Test K disease control rating [3, 5]: 94* %
11 | CCCCn1c(-c2ccc(F)cc2Cl)c(Cl)nc(-n2cccn2)c1=O [compound 266] |  |  |  |  |  |  |  |  |  |  |  |  | 99* % | 99* % | 100* % | 0* % | 100* % | 0* % | 99* % | 0* % | Test F disease control rating (Phytophthora infestans; [5]): 0* %; Test G disease control rating (Rhizoctonia oryzae; [5]): 90* %; Test C disease control rating (Sclerotinia sclerotiorum; [5]): 0* %; Test K disease control rating [3, 5]: 99* %
12 | CCCCn1c(-c2ccc(F)cc2Cl)c(Cl)nc(N2CCC=N2)c1=O [compound 267] |  |  |  |  |  |  |  |  |  |  |  |  | 0* % | 0* % | 100* % | 0* % | 60* % | 0* % | 0* % | 0* % | Test F disease control rating (Phytophthora infestans; [5]): 0* %; Test G disease control rating (Rhizoctonia oryzae; [5]): 0* %; Test C disease control rating (Sclerotinia sclerotiorum; [5]): 0* %; Test K disease control rating [3, 5]: 68* %
